From patent publication US20100184815A1 (priority 2008, published 2010)

How the values were obtained:
[1] = Metabolism studies using human liver microsomal preparations; type: in vitro ADME; conditions: for HLMs Predominant Enzyme: comparison of half life with and without NADPH: Esterase, CYP or Mixed; for half-life: pH 7.4, read-out: HLMs t1/2
Procedure, shortened: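 Pooled human liver microsomes in 50 mM Tris pH 7.4 with 5 mM MgCl2 at 37° C, with or without NADPH-generating system; buffer-only control for stability. Parent loss and acid metabolite formation followed by LC-MS/MS over 0–90 min. Half-life reported with NADPH; comparison with (−)NADPH assigns predominant enzyme.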

Gal-4 hPPARα = target: T1, Gal-4 hPPARα (Homo sapiens, UniProt Q07869); test: Gal4-hPPARα transient transfection reporter assay in Cos cells; type: cell-based; conditions: luciferase reporter, 24 hours with compound, scale 1-5, read-out: Gal-4 hPPAR α EC50 (scaled number)
T1 construct: Plasmids pGal4-hPPARα, pGal4-hPPARγ, pGal4-hPPARδ and pG5-TK-pGL3 were constructed as previously described by Staels, Bart, et al., Nature 1998 Jun; 25
T1 sequence (Q07869 200-468 limits assumed): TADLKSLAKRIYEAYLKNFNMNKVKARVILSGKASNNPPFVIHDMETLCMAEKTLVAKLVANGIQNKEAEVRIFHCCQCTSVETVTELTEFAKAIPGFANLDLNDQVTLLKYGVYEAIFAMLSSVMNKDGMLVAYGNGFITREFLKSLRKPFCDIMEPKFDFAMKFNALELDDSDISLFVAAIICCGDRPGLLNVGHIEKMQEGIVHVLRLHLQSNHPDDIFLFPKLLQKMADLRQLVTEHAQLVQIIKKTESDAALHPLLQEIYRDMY
Procedure, shortened: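 Cos cells transiently co-transfected with Gal4-hPPAR expression plasmid, pG5-TK-pGL3 luciferase reporter and β-galactosidase control, then treated 24 h with increasing compound concentrations in DMEM containing 0.2% FCS. Luciferase normalised to β-galactosidase; EC50 from curve fit, at least three experiments.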

Full Length hPPARγ = target: T2, Full Length hPPARγ (Homo sapiens, UniProt P37231); test: Full length hPPARγ transfection assay; type: cell-based; conditions: full length receptor; scale 1-5; read-out: Full Length hPPAR γ EC50 (scaled number)
T2 construct: Full Length; expressed in transfected cells; host or cells: Cos cells
T2 sequence (P37231 1-505): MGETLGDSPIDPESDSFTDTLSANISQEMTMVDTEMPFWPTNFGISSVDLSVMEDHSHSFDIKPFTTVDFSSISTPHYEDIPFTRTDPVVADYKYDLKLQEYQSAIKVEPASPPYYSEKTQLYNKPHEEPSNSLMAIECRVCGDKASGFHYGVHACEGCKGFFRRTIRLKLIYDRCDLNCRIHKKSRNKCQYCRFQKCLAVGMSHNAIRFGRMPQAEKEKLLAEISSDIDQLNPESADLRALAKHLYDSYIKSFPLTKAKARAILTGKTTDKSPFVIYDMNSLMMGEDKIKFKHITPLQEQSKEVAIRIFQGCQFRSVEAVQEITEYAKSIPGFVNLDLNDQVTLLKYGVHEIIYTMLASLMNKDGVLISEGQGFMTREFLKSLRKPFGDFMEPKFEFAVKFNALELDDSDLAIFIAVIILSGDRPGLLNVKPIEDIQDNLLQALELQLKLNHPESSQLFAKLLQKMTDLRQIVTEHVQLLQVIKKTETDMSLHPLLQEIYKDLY
Experimental: Transient transfection assays. Cos cells were seeded in 60-mm dishes at a density of 5.5×10^5 cells/dish in Dulbecco's modified Eagle's medium (DMEM) supplemented with 10% fetal calf serum (FCS) and incubated at 37° C. for 24 hours before transfection. Cells were transfected in Opti-MEM (Gibco; Invitrogen, Carlsbad, Calif.) without FCS for 3 hours at 37° C., using polyethylenimine, with reporter and expression plasmids. The plasmid pBluescript (Stratagene, La Jolla, Calif.) was used as carrier DNA to set the final amount of DNA to 5.5 μg/dish. The pCMV-b-galactosidase expression plasmid was cotransfected as a control for transfection efficiency. Transfection was stopped by the addition of DMEM supplemented with 10% FCS, and cells were then incubated at 37° C. After 16 hours, cells were trypsinized and seeded in 96-well plates at the density of 2×10^4 cells/well and incubated for 6 hours in 10% FCS-containing DMEM. Cells were then incubated for 24 hours in DMEM containing 0.2% FCS and increasing concentrations of the compound tested or vehicle (DMSO). At the end of the experiment, cells were washed once with ice-cold PBS, lysed and the luciferase and b-galactosidase assays were performed in a luminometer and spectrophotomer. Transfection efficiencies were normalized with the b-galactosidase activity assay. Half-maximal effective concentration (EC50) was estimated using Prism software (GraphPad). All transfection experiments were performed at least three times.
In the following tables, proprietary compound EC50 values for hPPAR α, β, δ and γ are shown. The EC50 value is the concentration of a drug that induces a response halfway between the baseline and maximum, and is commonly used as a measure of drug potency. EC50 values are reported on a scale of 1 through 5, wherein the value scale is defined for each receptor as follows: […]

[2] = pooled human liver microsomes, with NADPH (CYP system active), 37° C.

| HLMs t1/2 (min) [1, 2] | EC50 (Gal-4 hPPARα) | EC50 (Full Length hPPARγ) | HLMs Predominant Enzyme [1] | half-life [1, 2] | Compound |
| --- | --- | --- | --- | --- | --- |
| Stable | 0.001 to 0.05 µM | 0.201 to 0.999 µM |  |  | CCCCCCn1c(COC(=O)c2ccc(SC(C)(C)C(=O)O)cc2)nn(Cc2ccc(C)cc2)c1=O [Compound 160, 2-(4-(((4-hexyl-1-(4-methylbenzyl)-5-oxo-4,5-dihydro-1H-1,2,4-triazol-3-yl)methoxy)carbonyl)phenylthio)-2-methylpropanoic acid] |
|  | 0.001 to 0.05 µM | 0.051 to 0.2 µM | Mixed | 38 min | CCCCCCn1c(COC(=O)c2ccc(SC(C)(C)C(=O)O)cc2)nn(Cc2ccc(C(C)(C)C)cc2)c1=O [Compound 187, 2-(4-(((1-(4-tert-butylbenzyl)-4-hexyl-5-oxo-4,5-dihydro-1H-1,2,4-triazol-3-yl)methoxy)carbonyl)phenylthio)-2-methylpropanoic acid] |
|  | 0.001 to 0.05 µM | 0.051 to 0.2 µM | Esterase | 15 min | CCCCCCCn1c(COC(=O)c2ccc(SC(C)(C)C(=O)O)cc2)nn(Cc2ccc(C)cc2)c1=O [Compound 191, 2-(4-(((4-heptyl-1-(4-methylbenzyl)-5-oxo-4,5-dihydro-1H-1,2,4-triazol-3-yl)methoxy)carbonyl)phenylthio)-2-methylpropanoic acid] |
|  | 0.001 to 0.05 µM | 0.051 to 0.2 µM | CYP | 42 min | CCCCCCCCn1c(COC(=O)c2ccc(OC(C)(C)C(=O)O)c(OC)c2)nn(Cc2ccc(C)cc2)c1=O [Compound 186, 2-(2-methoxy-4-(((1-(4-methylbenzyl)-4-octyl-5-oxo-4,5-dihydro-1H-1,2,4-triazol-3-yl)methoxy)carbonyl)phenoxy)-2-methylpropanoic acid] |
|  | 0.001 to 0.05 µM | 0.051 to 0.2 µM | CYP | 90 min | CCCCCCCn1c(COC(=O)c2ccc(SC(C)(C)C(=O)O)cc2)nn(Cc2ccc(C(C)(C)C)cc2)c1=O [Compound 189, 2-(4-(((1-(4-tert-butylbenzyl)-4-heptyl-5-oxo-4,5-dihydro-1H-1,2,4-triazol-3-yl)methoxy)carbonyl)phenylthio)-2-methylpropanoic acid] |
|  | 0.001 to 0.05 µM | 0.201 to 0.999 µM | Esterase | 12 min | CCCCCCCCn1c(COC(=O)c2ccc(SC(C)(C)C(=O)O)cc2)nn(Cc2ccc(C)cc2)c1=O [Compound 161, 2-methyl-2-(4-(((1-(4-methylbenzyl)-4-octyl-5-oxo-4,5-dihydro-1H-1,2,4-triazol-3-yl)methoxy)carbonyl)phenylthio)propanoic acid] |
|  | 0.051 to 0.2 µM |  | Esterase | 60 min | CCCc1nn(Cc2ccc(C(F)(F)F)cc2)cc1COC(=O)c1ccc(SC(C)(C)C(=O)O)cc1 [Compound 12, 2-methyl-2-(4-(((3-propyl-1-(4-(trifluoromethyl)benzyl)-1H-pyrazol-4-yl)methoxy)carbonyl)phenylthio)propanoic acid] |
|  | 0.001 to 0.05 µM |  | Esterase | 90 min | Cc1ccc(Cn2cc(COC(=O)c3ccc(SC(C)(C)C(=O)O)cc3)nn2)cc1 [Compound 60, 2-methyl-2-(4-(((1-(4-methylbenzyl)-1H-1,2,3-triazol-4-yl)methoxy)carbonyl)phenylthio)propanoic acid] |
|  | 0.001 to 0.05 µM |  | Mixed | 33 min | CCCCCCCn1c(COC(=O)c2ccc(OC(C)(C)C(=O)O)cc2)nn(Cc2ccc(C)cc2)c1=O [Compound 192, 2-(4-(((4-heptyl-1-(4-methylbenzyl)-5-oxo-4,5-dihydro-1H-1,2,4-triazol-3-yl)methoxy)carbonyl)phenoxy)-2-methylpropanoic acid] |
|  | 0.051 to 0.2 µM |  | Esterase | 25 min | COC(c1ccc(Cn2cc(COC(=O)c3ccc(SC(C)(C)C(=O)O)cc3)nn2)cc1)(C(F)(F)F)C(F)(F)F [Compound 75, 2-(4-(((1-(4-(1,1,1,3,3,3-hexafluoro-2-methoxypropan-2-yl)benzyl)-1H-1,2,3-triazol-4-yl)methoxy)carbonyl)phenylthio)-2-methylpropanoic acid] |
